By EC50 is commonly meant the concentration at which the effect is half-maximal. In general, AC50 refers to the midpoint of the concentration-response curve, whichever way the signal moves. A word on the IC50: it is the concentration that inhibits the measured activity by half.

Our source for the EC50, AC50 and IC50 values is ChEMBL document CHEMBL1201862, “PubChem BioAssay data set” (2004).

SMILES strings stand for the structures. Structures can show the parent of a compound that is named as a salt. The source made the active and inactive calls.

The target in the first assay is T1, RNA-binding protein pos-1 (Caenorhabditis elegans, UniProt G5EF15).
T1 sequence (G5EF15 whole entry): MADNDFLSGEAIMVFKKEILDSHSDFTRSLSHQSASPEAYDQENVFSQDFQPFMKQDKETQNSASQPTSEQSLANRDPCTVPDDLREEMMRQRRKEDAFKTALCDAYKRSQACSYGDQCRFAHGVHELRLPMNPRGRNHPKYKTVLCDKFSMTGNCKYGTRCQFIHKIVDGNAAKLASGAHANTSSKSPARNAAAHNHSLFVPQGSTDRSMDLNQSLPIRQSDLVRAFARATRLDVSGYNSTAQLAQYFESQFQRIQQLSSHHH
The assay is described as follows: disruptors of C. elegans POS-1 RNA interaction – biochemical, fluorescence polarization, dose response (AID 1964).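 Further: purified POS-1 fused to maltose binding protein made in E. coli; potency of compounds blocking POS-1 binding to fluorescent RNA.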
Conditions: not given
(In general: In fluorescence polarisation assays a small probe gives low polarisation when free and higher when bound to something large.)
In the case of `CNc1c(N)n(Cc2ccccc2)c(=O)[nH]c1=O`, the EC50 was > 300 µM (not active).
Still for that read-out and setting: in the case of `Cc1cc(O)cc2c1C(=O)/C(=C/c1ccco1)O2` it was 15.8 µM (active); in that of `NC(=Nc1ccc(N)cc1)C(N)=Nc1ccc(N)cc1`, > 300 µM (not active).
On the same count and under the same terms, for `Clc1cccc(CSc2nc3cc[nH]cc-3n2)c1` the value was > 300 µM (not active).
Still for that read-out and setting: in the case of `O=C1CSC(=S)N1N1C(=O)c2cccc([N+](=O)[O-])c2C1=O` it was 24.9 µM (active); in that of `N=c1c(C(=O)NC2CCCCC2)cc2c(=O)n3ccccc3nc2n1CCc1ccccc1`, 15.2 µM (active).
Consider `Cc1n[nH]c(S/C(=C/c2ccc(-c3cccc(Cl)c3)o2)C(=O)O)n1`, for which the EC50 is listed as > 300 µM (not active).
On to `Cc1ccc2[nH]c3c(c2c1)CN(C(=O)CN1CCN(C(=O)c2ccco2)CC1)CC3`, for which the EC50 was 112 µM (active).

Test system in the next assay: not listed separately
The assay is described as follows: reduction of Shn3 3'UTR-driven luciferase in osteoblasts – cell-based, Clone20 osteoblasts, firefly luciferase, cherry-picked, dose response (AID 624132).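 Further: firefly luciferase luminescence from reporter carrying the Shn3 3'UTR in osteoblasts.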 The assay is classed as functional.
Conditions: not given
In the case of `CC(C)NC(=N)NC(=N)Nc1ccc(Cl)cc1` [PROGUANIL HYDROCHLORIDE], the AC50 was 0.37 µM (active).
Same read-out and setting: for `CC(=O)c1ccc(N2CCN(c3ccc(S(=O)(=O)NCCCN(C)C)cc3[N+](=O)[O-])CC2)cc1` the value was 3.78 µM (active); for `O=c1c2ccccc2nc2n1C(CSCc1ccc(Cl)cc1Cl)CS2` (centres undefined), 1.45 µM (active); for `CCOc1ccc(CN(C)c2ccc(S(=O)(=O)N3CCN(C)CC3)cc2[N+](=O)[O-])cc1OC`, 3.38 µM (active).

In the next assay the target is Large T antigen (Simian virus 40, UniProt P03070).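 Further: Confirmatory-stage PubChem screen for compounds that inhibit SV40 T antigen.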
Chain of Large T antigen (P03070 whole entry): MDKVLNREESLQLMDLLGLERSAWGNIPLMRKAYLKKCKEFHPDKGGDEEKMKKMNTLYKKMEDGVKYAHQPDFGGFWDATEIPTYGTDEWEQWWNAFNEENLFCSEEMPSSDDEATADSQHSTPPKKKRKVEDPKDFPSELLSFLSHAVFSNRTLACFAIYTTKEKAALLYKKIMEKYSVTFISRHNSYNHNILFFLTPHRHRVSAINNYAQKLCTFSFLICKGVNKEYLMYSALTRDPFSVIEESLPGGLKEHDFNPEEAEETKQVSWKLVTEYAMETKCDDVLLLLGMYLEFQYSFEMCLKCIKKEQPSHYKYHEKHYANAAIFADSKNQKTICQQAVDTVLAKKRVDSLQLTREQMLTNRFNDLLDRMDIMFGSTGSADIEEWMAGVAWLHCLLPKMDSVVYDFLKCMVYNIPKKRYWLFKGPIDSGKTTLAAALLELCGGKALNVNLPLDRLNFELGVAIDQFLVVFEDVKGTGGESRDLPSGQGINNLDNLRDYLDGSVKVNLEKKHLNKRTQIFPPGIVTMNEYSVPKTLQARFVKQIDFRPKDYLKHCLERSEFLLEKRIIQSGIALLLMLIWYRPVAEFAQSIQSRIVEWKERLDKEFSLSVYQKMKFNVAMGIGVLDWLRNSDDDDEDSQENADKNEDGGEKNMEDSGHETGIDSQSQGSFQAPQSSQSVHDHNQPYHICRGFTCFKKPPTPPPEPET
Test: not given
The format is functional, Betapolyomavirus macacae.
Conditions: not given
Regarding `Nc1cnc(Nc2ccc(Br)cc2)nc1N`, the IC50 is 22.3 µM (active).

Test system in another assay: not listed separately
The assay is described as follows: non-specific 3'UTR reporter inhibition in Clone20-Shn3RL – cell-based, Renilla luciferase, cherry-picked, counter-screen for Shn3 inhibitor project, dose response (AID 624133).
Conditions: not given
The format is functional.
As to `CC(C)NC(=N)NC(=N)Nc1ccc(Cl)cc1` [PROGUANIL HYDROCHLORIDE], the AC50 was 0.403 µM (active).
Consider `CC(=O)c1ccc(N2CCN(c3ccc(S(=O)(=O)NCCCN(C)C)cc3[N+](=O)[O-])CC2)cc1`, for which the AC50 was 36.7 µM (active).
With `O=c1c2ccccc2nc2n1C(CSCc1ccc(Cl)cc1Cl)CS2` (centres undefined), the AC50 was 3.48 µM (active).
Same read-out and setting: for `CCOc1ccc(CN(C)c2ccc(S(=O)(=O)N3CCN(C)CC3)cc2[N+](=O)[O-])cc1OC` the value was 5.91 µM (active).

Test system in a further assay: not listed separately
Nature of the assay: loss of viability in HepG2 cells – cell-based, CellTiter-Glo, cherry-picked, cytotoxicity control for Shn3 inhibitor project, dose response (AID 624134). The assay is classed as functional.
Conditions: not given
A general note: In ATP-based viability assays light output follows the ATP content of the culture.
On to `CC(=O)c1ccc(N2CCN(c3ccc(S(=O)(=O)NCCCN(C)C)cc3[N+](=O)[O-])CC2)cc1`, for which the AC50 was 27.3 µM (active).
For the compound `O=c1c2ccccc2nc2n1C(CSCc1ccc(Cl)cc1Cl)CS2` (centres undefined), the AC50 is 46.2 µM (active).
On the same count and under the same terms, for `CCOc1ccc(CN(C)c2ccc(S(=O)(=O)N3CCN(C)CC3)cc2[N+](=O)[O-])cc1OC` the value was 43 µM (active).

Test system in another assay: not listed separately
The assay is described as follows: Luminescence Cell-Based Dose Retest to Confirm Inhibitors of Cancer Stem Cells. [Related pubchem assays (depositor defined):AID2717, AID2721]. The assay is classed as functional, Homo sapiens. The conditions noted are these: Homo sapiens.
`CC(=O)c1ccc(N2CCN(c3ccc(S(=O)(=O)NCCCN(C)C)cc3[N+](=O)[O-])CC2)cc1`: the AC50 is 1.41 µM (active).

In a further assay the target is T2, Zinc finger protein mex-5 (Caenorhabditis elegans, UniProt Q9XUB2).
T2 sequence (Q9XUB2 whole entry): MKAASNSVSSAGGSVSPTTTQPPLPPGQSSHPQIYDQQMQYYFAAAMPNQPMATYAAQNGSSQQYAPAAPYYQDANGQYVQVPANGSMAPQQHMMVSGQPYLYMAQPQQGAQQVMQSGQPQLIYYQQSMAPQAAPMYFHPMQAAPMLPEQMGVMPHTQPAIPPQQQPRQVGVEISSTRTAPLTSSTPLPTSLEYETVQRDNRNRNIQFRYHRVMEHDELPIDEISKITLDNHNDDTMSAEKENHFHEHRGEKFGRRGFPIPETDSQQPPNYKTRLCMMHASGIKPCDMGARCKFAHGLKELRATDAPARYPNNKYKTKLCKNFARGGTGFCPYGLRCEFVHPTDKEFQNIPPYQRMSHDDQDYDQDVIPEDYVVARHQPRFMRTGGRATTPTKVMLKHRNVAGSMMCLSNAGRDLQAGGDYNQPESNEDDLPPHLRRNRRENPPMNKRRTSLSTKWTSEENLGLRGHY
Nature of the assay: potency of MEX-5 RNA-binding blockers – biochemical, C. elegans, fluorescence polarization, dose response (AID 1960).
Conditions: not given
On to `CNc1c(N)n(Cc2ccccc2)c(=O)[nH]c1=O`, for which the EC50 is 92.1 µM (inconclusive).
Consider `Cc1cc(O)cc2c1C(=O)/C(=C/c1ccco1)O2`, for which the EC50 is given as > 300 µM (not active).
The same measure, in the same setting: in the case of `NC(=Nc1ccc(N)cc1)C(N)=Nc1ccc(N)cc1` it was 42.8 µM (active); in that of `Clc1cccc(CSc2nc3cc[nH]cc-3n2)c1`, > 300 µM (not active).
The same measure, in the same setting: for `O=C1CSC(=S)N1N1C(=O)c2cccc([N+](=O)[O-])c2C1=O` the value was 24.8 µM (active).
Consider `N=c1c(C(=O)NC2CCCCC2)cc2c(=O)n3ccccc3nc2n1CCc1ccccc1`, for which the EC50 was 16.1 µM (active).
The same measure, in the same setting: for `Cc1n[nH]c(S/C(=C/c2ccc(-c3cccc(Cl)c3)o2)C(=O)O)n1` the value was 69.5 µM (active).
The same measure, in the same setting: for `Cc1ccc2[nH]c3c(c2c1)CN(C(=O)CN1CCN(C(=O)c2ccco2)CC1)CC3` the value was 68 µM (active).
